Measured values published in patent US10045952B2, “Anti-Viral Compound and Composition” (Forest Herbs Research Limited, priority 2013, dated 2018).
Values after ≈ are worked out from the molar mass of the structure shown. “Also recorded” adds a separate entry of the source.

Columns and labels:
HSV-1 [1] = test: Crystal violet assay, anti-viral activity against HSV-1 in HaCaT cells; assay type: cell-based, Herpes simplex type 1 virus
Description: The crystal violet assay depends on the ability of adherent cell lines such as Vero to stick to the bottom of tissue culture plates. Damaged or dead cells lose their ability to adhere and are removed during a washing process. Viable cells remaining are stained with crystal violet, which is then released from the cells and measured in a spectrophotometer. Vero cells were seeded at 3×10^5 cells/ml overnight at 37° C. in 96-well tissue culture plates. When cells had reached confluency, 50 μl of the growth media was removed and replaced with 25 μl of virus and 25 μl of test product. Controls were the same as those used in the xCelligence assay. The assay was terminated after 96 hours which is the length of time taken to see CPE in the control wells. In the first test (results shown in FIGS. 2A and B), the HSV-1 anti-viral activity of pure polygodial was assessed in comparison to Acyclovir in both Vero cells (FIG. 2A) and HaCaT cells (FIG. 2B).

HSV-1 [2] = test: Crystal violet assay, anti-viral activity against HSV-1 in Vero cells; assay type: cell-based, Herpes simplex type 1 virus
Description: A wild-type HSV-1 obtained from ESR, Upper Hutt, was cultured in Vero (African Green Monkey kidney) tissue culture cells. HSV-1 virus was added to confluent Vero cell monolayers and allowed to infect until >70% cytopathic effect was observed. The infected cultures were then frozen and thawed three times and centrifuged at 3000 rpm for 15 minutes. The supernatant was stored at −80° C. until use.
(§1) The crystal violet assay depends on the ability of adherent cell lines such as Vero to stick to the bottom of tissue culture plates. Damaged or dead cells lose their ability to adhere and are removed during a washing process. Viable cells remaining are stained with crystal violet, which is then released from the cells and measured in a spectrophotometer.
(§2) Vero cells were seeded at 3×10^5 cells/ml overnight at 37° C. in 96-well tissue culture plates. When cells had reached confluency, 50 μl of the growth media was removed and replaced with 25 μl of virus and 25 μl of test product. Controls were the same as those used in the xCelligence assay. The assay was terminated after 96 hours which is the length of time taken to see CPE in the control wells.

[3] = tested on: Vero cells and HaCaT cells; test: Cytotoxicity to the cells used in the in vitro anti-viral testing (crystal violet assay); assay type: cell-based, African Green Monkey; conditions: at the concentrations tested in the anti-viral assay
Description: as §1, §2
In this test, it was confirmed that polygodial is not cytotoxic at the concentrations tested because where strong anti-viral activity is present, the cells are alive and uninfected by the virus.

cells = conditions: literature statement; cited from earlier work
[4] = 4 μl/ml Acyclovir, virus only control infection rate about 75%

For `Nc1nc2c(ncn2COCCO)c(=O)[nH]1` [Acyclovir, reference compound], the “uninfected HaCaT cells, Acyclovir control, second test (FIG. 3B)” value (HSV-1 [1]; [4]) was 75%, the “uninfected cells, Acyclovir control, first test (FIGS. 2A and B)” value (HSV-1 [2]; 4 μl/ml Acyclovir, Vero and HaCaT not distinguished, virus only control infection rate about 80%) was 80% and the “uninfected Vero cells, Acyclovir control, second test (FIG. 3A)” value (HSV-1 [2]; [4]) was 60%.
With `CC1(C)CCC[C@]2(C)[C@@H](C=O)C(C=O)=CC[C@@H]12` [polygodial] the “concentration at which anti-viral effect was comparative to 4 μl/ml Acyclovir” value (HSV-1 [1]; HaCaT cells) was 0.3125 mg/mL, the cytotoxicity [3] was “not cytotoxic; also recorded: low cytotoxicity” and the MIC (HSV-1 [2]; Human alphaherpesvirus 1, calculated, HSV-1, cell line not distinguished (Vero and HaCaT)) was 600 to 1200 µg/mL (≈ 2.56 to 5.12 mM). For the same compound, the “concentration at which anti-viral effect was comparative to 4 μl/ml Acyclovir” value (HSV-1 [2]; Vero cells) was 0.15 mg/mL.
For `CC1(C)CCC[C@@]2(C)[C@H]1CC=C(C=O)[C@]2(O)C=O` [warburganal], the cytotoxicity (cells) is listed as “particularly cytotoxic”.
